Results: US12544387B2, “Methods and compositions for testosterone production” (priority 2023, dated 2026)

Key:
[1] = Testosterone concentration at time points after 200 mg of testosterone (FIG. 1)
Description: FIG. 1 is a phase diagram of the testosterone concentration in a patient at various time points after being administered 200 mg of testosterone.
Hormone levels were measured after co-administration of 200 mg of testosterone and 6.25 mg of enclomiphene for 30 days. Testosterone concentration was measured at +4 hours and +12 hours after administration. […] Testosterone concentration was measured at +4 hours after administration to capture the peak testosterone concentration (cMax) and +12 hours after administration to capture the trough testosterone concentration (cMin) to determine if endogenous testosterone suppression is prevented with the enclomiphene.

[2] = tested on: endogenous testosterone, LH, and FSH production; experiment: Example 3: hormone levels after enclomiphene; type: in vivo, human; settings: 6.25 mg enclomiphene; n=1
Description: This example investigated the effects of administering a SERM (enclomiphene) on endogenous testosterone, LH, and FSH production.
Hormone levels were measured after administration of 6.25 mg of enclomiphene (see Table 3, n=1).

SMILES | time of testosterone peak [1] [h] | time until testosterone is out of the system [1] [h] | Sex Hormone Binding Globulin [2] [nmol/L] | increase of calculated free testosterone from baseline (114 pg/mL) [2] [%]
C[C@]12CC[C@H]3[C@@H](CCC4=CC(=O)CC[C@@]43C)[C@@H]1CC[C@@H]2O [testosterone, 17β-hydroxy-4-androsten-3-one] | 3 to 5 | ≤ 12 | – | –
CCN(CC)CCOc1ccc(/C(=C(/Cl)c2ccccc2)c2ccccc2)cc1 [enclomiphene] | – | – | 20 | 73
